These results are taken from patent US10059717B2, “Urea compounds containing 3,4-dihydropyrimido[4,5-D]pyrimidin-2(1H)-one skeleton as protein kinase inhibitors” (KOREA INSTITUTE OF SCIENCE AND TECHNOLOGY, priority 2016, dated 2018).

Assay [1] relates to Ba/F3 (N-Ras G12D). Description: Proliferation inhibitory activity, Ba/F3. As to conditions: Mus musculus, BaF3; Ba/F3 (N-Ras G12D) cell line; read-out: Proliferation inhibitory efficacy (GI50, μM) Ba/F3 (N-Ras G12D). In kind it is cell-based. The protocol: GI50 values were calculated by measuring the proliferation inhibitory efficacy of the compounds of the present invention on mt-NRAS (G12D) Ba/F3, U937 (wt-NRAS) and OCI-AML3 (mt-NRAS) cell lines.

Assay [2] concerns the target ACK1 (Homo sapiens, UniProt Q07912). Description: ACK1 kinase inhibitory activity. The format is biochemical. Conditions: read-out: Kinase inhibitory efficacy, GI50 ACK1. On the procedure: (§1) GI50 values were calculated by measuring the inhibitory efficacy of the compounds of the present invention against both GCK and ACK1 kinases.
The target in assay [3] is FLT4NEGFR3 (Homo sapiens, UniProt P35916). In words: Kinase panel biochemical assay. Conditions: 1 μM single concentration, read-out: % residual enzyme activity. In a few lines: (§2)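 Single-point screen: 1 μM compound vs. each kinase in the biochemical panel; readout = % residual enzyme activity.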
In assay [4] the target is EPHA8 (Homo sapiens, UniProt P29322). Description: Kinase panel biochemical assay. As to conditions: 1 μM single concentration, read-out: % residual enzyme activity. In a few lines: as §2
EPHA8, sequence (P29322 28-1005): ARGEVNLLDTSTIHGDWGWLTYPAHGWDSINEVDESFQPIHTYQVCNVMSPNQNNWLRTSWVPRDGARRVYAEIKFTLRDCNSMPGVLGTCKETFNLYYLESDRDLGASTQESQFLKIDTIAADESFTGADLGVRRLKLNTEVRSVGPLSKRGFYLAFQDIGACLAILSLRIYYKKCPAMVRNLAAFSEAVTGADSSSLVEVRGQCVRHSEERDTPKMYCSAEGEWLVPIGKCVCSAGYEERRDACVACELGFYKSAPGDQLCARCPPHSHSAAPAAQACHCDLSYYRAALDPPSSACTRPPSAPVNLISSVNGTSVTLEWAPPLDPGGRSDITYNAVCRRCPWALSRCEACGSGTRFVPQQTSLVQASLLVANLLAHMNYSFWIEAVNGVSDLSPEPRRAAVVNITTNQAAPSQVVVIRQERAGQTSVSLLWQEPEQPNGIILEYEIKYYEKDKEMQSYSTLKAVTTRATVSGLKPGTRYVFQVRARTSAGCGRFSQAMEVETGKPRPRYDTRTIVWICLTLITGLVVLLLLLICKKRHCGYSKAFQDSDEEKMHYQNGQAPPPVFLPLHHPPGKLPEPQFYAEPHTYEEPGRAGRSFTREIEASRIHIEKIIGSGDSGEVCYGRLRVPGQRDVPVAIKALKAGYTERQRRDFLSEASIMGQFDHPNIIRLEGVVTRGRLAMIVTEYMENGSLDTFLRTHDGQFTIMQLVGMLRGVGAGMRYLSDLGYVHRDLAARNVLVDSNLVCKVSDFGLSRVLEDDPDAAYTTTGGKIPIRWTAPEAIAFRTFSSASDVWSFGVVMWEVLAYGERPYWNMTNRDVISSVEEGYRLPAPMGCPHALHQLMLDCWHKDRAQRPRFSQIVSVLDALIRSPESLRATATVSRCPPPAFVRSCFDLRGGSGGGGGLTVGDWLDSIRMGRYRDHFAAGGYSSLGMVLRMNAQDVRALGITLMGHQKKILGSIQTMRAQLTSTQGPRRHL
For assay [5], the target named is ERBB4/HER4 (Homo sapiens, UniProt Q15303). In words: Kinase panel biochemical assay. Conditions: 1 μM single concentration, read-out: % residual enzyme activity. In a few lines:
as §2

The target in assay [6] is EPHA7 (Homo sapiens, UniProt Q15375). Description: Kinase panel biochemical assay. As to conditions: 1 μM single concentration, read-out: % residual enzyme activity. In a few lines: as §2
Assay [7] has as its target TAOK1 (Homo sapiens, UniProt Q7L7X3). Description: Kinase panel biochemical assay. Conditions: 1 μM single concentration, read-out: % residual enzyme activity. In a few lines:
as §2

The target in assay [8] is FGFR2 (Homo sapiens, UniProt P21802). In words: Kinase panel biochemical assay. Conditions: 1 μM single concentration, read-out: % residual enzyme activity. In a few lines:
as §2

Assay [9] deals with BRK (Homo sapiens, UniProt Q13882). In words: Kinase panel biochemical assay. Conditions: 1 μM single concentration, read-out: % residual enzyme activity. In a few lines: as §2
BRK, sequence (Q13882 whole entry): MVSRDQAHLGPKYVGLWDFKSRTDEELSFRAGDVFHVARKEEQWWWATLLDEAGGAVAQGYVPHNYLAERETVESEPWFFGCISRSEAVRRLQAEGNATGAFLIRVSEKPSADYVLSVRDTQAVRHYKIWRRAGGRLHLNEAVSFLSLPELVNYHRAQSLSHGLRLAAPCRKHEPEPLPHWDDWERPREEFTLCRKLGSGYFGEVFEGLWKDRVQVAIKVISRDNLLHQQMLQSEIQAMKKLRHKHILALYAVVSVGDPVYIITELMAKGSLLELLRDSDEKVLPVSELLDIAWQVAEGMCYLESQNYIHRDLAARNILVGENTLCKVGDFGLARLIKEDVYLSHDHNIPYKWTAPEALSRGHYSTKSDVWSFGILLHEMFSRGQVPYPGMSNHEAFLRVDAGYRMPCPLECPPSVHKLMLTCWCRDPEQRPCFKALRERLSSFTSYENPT
The target in assay [10] is FES/FPS (Homo sapiens, UniProt P07332). In words: Kinase panel biochemical assay. As to conditions: 1 μM single concentration, read-out: % residual enzyme activity. In a few lines: as §2
Assay [11] addresses LIMK1 (Homo sapiens, UniProt P53667). In words: Kinase panel biochemical assay. As to conditions: 1 μM single concentration, read-out: % residual enzyme activity. In a few lines:
as §2

Assay [12] deals with FLT1NEGFR1 (Homo sapiens, UniProt P17948). Description: Kinase panel biochemical assay. As to conditions: 1 μM single concentration, read-out: % residual enzyme activity. In a few lines: as §2
For assay [13], the target named is TAOK2/TAO1 (Homo sapiens, UniProt Q9UL54). Description: Kinase panel biochemical assay. As to conditions: 1 μM single concentration, read-out: % residual enzyme activity. In a few lines:
as §2

In assay [14] the target is T1, GCK (Homo sapiens, UniProt Q12851).
T1 sequence (Q12851 1-820): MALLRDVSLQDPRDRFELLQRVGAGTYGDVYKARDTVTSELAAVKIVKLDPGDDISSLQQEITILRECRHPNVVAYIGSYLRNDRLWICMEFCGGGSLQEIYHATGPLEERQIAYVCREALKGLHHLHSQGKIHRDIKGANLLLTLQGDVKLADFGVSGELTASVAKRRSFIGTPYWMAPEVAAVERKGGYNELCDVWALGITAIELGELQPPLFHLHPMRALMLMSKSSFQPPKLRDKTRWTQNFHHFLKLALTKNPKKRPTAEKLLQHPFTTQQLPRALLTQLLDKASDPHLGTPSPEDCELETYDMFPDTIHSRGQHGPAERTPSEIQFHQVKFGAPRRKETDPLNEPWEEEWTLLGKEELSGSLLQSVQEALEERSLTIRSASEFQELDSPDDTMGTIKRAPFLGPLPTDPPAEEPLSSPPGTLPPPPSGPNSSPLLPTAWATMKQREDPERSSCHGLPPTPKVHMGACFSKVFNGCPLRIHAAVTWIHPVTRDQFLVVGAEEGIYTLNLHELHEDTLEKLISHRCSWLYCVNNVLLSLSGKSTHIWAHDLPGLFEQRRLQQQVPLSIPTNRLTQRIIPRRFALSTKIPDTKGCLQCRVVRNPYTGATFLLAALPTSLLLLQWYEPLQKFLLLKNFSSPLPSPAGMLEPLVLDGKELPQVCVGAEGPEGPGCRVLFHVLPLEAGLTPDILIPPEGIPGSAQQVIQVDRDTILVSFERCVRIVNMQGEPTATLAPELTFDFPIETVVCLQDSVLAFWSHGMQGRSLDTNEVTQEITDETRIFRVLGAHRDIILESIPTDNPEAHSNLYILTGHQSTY
Description: GCK kinase inhibitory activity. The format is biochemical. Conditions: read-out: Kinase inhibitory efficacy, GI50 GCK. The protocol: as §1

ACK1, sequence (Q07912 whole entry): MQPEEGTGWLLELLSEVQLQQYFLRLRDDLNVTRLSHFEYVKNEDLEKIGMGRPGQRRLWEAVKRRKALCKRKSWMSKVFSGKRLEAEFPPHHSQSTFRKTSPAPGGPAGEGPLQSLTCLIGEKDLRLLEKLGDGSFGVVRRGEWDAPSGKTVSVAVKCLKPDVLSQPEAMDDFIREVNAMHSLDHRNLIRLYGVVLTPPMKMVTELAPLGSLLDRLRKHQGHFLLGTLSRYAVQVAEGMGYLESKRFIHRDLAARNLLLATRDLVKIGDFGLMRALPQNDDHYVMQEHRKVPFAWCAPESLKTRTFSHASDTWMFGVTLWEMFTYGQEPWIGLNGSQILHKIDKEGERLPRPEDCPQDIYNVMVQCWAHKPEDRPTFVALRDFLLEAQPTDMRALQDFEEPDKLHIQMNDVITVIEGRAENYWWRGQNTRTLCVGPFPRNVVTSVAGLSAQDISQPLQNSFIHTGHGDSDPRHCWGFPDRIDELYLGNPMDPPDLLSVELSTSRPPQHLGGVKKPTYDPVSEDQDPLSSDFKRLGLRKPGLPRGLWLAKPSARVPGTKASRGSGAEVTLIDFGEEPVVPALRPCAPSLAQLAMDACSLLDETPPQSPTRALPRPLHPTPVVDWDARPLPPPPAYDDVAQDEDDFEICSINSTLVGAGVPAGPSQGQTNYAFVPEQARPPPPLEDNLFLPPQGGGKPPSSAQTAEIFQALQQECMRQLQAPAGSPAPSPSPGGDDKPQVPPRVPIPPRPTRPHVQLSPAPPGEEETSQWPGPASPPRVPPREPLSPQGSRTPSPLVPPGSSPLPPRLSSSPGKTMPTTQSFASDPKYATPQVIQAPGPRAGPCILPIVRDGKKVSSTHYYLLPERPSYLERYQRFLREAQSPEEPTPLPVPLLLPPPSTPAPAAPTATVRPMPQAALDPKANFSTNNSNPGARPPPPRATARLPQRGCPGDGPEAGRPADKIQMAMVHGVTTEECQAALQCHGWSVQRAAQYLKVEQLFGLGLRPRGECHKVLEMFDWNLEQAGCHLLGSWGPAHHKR
TAOK2/TAO1, sequence (Q9UL54 whole entry): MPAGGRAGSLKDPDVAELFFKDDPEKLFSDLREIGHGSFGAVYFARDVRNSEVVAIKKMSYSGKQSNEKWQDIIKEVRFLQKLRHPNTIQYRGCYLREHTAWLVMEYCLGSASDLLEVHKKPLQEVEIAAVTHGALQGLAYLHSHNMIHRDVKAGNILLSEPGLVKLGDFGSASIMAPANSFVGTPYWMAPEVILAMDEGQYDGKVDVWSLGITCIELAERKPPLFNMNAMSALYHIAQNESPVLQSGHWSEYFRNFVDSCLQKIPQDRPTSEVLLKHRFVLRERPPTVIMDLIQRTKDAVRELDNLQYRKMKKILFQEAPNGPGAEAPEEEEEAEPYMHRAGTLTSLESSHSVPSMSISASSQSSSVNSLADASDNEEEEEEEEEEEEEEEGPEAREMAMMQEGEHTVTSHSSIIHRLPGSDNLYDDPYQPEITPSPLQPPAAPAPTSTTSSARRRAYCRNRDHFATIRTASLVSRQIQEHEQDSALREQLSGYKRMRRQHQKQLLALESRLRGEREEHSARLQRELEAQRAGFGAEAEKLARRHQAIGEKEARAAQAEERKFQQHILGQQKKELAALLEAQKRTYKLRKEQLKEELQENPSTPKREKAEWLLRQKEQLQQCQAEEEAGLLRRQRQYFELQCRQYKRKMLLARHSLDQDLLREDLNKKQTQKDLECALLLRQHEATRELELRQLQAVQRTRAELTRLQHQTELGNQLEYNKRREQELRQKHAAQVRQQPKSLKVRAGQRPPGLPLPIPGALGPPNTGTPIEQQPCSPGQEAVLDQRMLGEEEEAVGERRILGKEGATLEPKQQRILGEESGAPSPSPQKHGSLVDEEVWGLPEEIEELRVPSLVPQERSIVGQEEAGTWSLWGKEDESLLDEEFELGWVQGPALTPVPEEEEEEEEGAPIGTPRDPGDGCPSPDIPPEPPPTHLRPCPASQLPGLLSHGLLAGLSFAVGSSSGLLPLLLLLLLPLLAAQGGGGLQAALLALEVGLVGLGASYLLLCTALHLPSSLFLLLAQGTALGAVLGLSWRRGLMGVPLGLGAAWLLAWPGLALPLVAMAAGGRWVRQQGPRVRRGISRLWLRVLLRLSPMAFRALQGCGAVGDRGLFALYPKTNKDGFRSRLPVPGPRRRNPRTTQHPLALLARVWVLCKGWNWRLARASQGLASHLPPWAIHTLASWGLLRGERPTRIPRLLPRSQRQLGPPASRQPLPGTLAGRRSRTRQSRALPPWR
ERBB4/HER4, sequence (Q15303 26-1308): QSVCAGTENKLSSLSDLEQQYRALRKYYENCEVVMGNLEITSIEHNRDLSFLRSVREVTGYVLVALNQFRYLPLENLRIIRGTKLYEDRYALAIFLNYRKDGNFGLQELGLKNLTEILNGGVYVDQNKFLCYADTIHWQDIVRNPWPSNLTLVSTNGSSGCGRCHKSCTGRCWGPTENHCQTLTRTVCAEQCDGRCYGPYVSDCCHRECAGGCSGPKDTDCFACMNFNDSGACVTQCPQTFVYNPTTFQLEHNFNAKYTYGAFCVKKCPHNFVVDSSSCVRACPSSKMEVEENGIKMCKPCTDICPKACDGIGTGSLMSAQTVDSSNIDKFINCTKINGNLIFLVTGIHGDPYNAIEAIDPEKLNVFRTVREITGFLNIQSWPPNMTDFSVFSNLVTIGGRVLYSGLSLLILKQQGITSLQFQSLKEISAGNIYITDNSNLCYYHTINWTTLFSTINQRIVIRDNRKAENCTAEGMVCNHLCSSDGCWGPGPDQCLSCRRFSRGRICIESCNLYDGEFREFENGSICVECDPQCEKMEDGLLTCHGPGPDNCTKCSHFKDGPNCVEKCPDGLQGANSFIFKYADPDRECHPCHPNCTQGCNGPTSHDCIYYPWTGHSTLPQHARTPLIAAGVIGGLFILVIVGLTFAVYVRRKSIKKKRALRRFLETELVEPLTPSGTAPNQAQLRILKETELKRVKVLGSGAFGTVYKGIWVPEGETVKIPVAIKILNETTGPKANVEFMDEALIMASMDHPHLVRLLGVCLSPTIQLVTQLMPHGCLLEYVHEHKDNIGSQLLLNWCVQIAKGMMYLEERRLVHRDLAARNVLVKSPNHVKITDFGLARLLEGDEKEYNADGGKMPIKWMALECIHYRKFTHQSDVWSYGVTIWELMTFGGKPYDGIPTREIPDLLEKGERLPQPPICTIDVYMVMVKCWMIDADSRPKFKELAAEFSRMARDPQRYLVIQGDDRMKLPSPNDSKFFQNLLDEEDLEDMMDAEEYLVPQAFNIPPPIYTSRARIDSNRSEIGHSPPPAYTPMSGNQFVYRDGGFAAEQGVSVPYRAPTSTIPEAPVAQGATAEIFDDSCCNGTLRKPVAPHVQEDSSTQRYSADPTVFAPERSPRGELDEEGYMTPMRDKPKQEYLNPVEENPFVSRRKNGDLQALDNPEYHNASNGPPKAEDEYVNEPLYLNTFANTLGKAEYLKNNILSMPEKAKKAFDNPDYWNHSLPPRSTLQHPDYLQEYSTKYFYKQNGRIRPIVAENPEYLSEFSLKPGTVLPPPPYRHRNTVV

As for `CCN1CCN(C(=O)c2ccc(Nc3ncc4c(n3)N(C)C(=O)N(c3cc(NC(=O)Nc5ccccc5OC)ccc3C)C4)cn2)CC1` [Compound No. 14, 1-(3-(7-((6-(4-ethylpiperazin-1-carbonyl)pyridin-3-yl)amino)-1-methyl-2-oxo-1,4-dihydropyrimido[4,5-d]pyrimidin-3(2H)-yl)-4-methylphenyl)-3-(2-methoxyphenyl)urea], the GI50 in [1] is 0.5 to 3 µM; in assay [2], < 30 nM; in assay [14], < 30 nM. In addition, the remaining activity at 1 µM in [3], in assay [4], in assay [5], in assay [6], in [7] and in assay [8] was ≤ 30% each time. Further, the remaining activity at 1 µM in assay [9], in assay [10], in [11], in [12] and in assay [13] was ≤ 30% throughout.
